Measurements taken from PubChem BioAssay (NCI).
Where “and” joins values, the source holds several entries; their conditions need not be identical. Identical values can stand only once.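 Protocol summary: plate cells (96-well), add compound at 5 concentrations, incubate 48 h, interpolate endpoints linearly. The concentration for 50% growth inhibition is given as GI50. Definition used: TGI = concentration required for complete inhibition of growth.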

Legend:
Experiment in all cases: inhibition of tumour cell growth, NCI panel, 48 h
[1] = system: NCI/ADR-RES ovarian
[2] = system: OVCAR-4 ovarian
[3] = system: TK-10 renal
[4] = system: KM12 colon
[5] = system: SK-MEL-2 melanoma
[6] = system: CAKI-1 renal
[7] = system: HCC-2998 colon
[8] = system: K-562 leukemia
[9] = system: HCT-15 colon
[10] = system: SNB-19 CNS
[11] = system: OVCAR-3 ovarian
[12] = system: OVCAR-5 ovarian
[13] = system: U251 CNS
[14] = system: NCI-H522 lung
[15] = system: HL-60(TB) leukemia
[16] = system: SF-539 CNS
[17] = system: 786-0 renal
[18] = system: NCI-H460 lung
[19] = system: RXF 393 renal
[20] = system: SF-295 CNS
[21] = system: MDA-N
[22] = system: BT-549 breast
[23] = system: M14 melanoma
[24] = system: A549 NSCLC
[25] = system: SK-MEL-28 melanoma
[26] = system: MDA-MB-435
[27] = system: SW-620 colon
[28] = system: MCF7 breast
[29] = system: HCT-116 colon
[30] = system: DU-145 prostate
[31] = system: HS 578T breast
[32] = system: NCI-H226 lung
[33] = system: SNB-75 CNS
[34] = system: IGROV1 ovarian
[35] = system: PC-3 prostate
[36] = system: UACC-62 melanoma
[37] = system: MOLT-4 leukemia
[38] = system: SF-268 CNS
[39] = system: A498 renal
[40] = system: LOX IMVI melanoma
[41] = system: MDA-MB-231 breast
[42] = system: EKVX NSCLC
[43] = system: HOP-92 NSCLC
[44] = system: ACHN renal
[45] = system: MALME-3M melanoma
[46] = system: SK-MEL-5 melanoma
[47] = system: CCRF-CEM leukemia
[48] = system: T-47D breast
[49] = system: SN12C renal
[50] = system: COLO 205 colon
[51] = system: OVCAR-8 ovarian
[52] = system: SR leukemia
[53] = system: RPMI-8226 leukemia
[54] = system: UACC-257 melanoma
[55] = system: UO-31 renal
[56] = system: HOP-62 NSCLC
[57] = system: SK-OV-3 ovarian
[58] = system: HT29 colon
[59] = system: NCI-H23 lung

SMILES: O=C(Nc1ccccc1)c1cc(S(=O)(=O)N2CCNNC2=O)c(S)cc1Cl
- TGI [1]: > 100 µM
- TGI [2]: > 100 µM
- TGI [3]: > 100 µM
- TGI [4]: > 100 µM
- TGI [5]: > 100 µM
- TGI [6]: > 100 µM
- TGI [7]: > 100 µM
- TGI [8]: > 100 µM
- TGI [9]: > 100 µM
- TGI [10]: > 100 µM
- TGI [11]: > 100 µM
- TGI [12]: > 100 µM
- TGI [13]: > 100 µM
- TGI [14]: > 100 µM
- TGI [15]: > 100 µM
- TGI [16]: > 100 µM
- TGI [17]: > 100 µM
- TGI [18]: > 100 µM
- TGI [19]: 74.4 µM
- TGI [20]: > 100 µM
- TGI [21]: > 100 µM
- TGI [22]: > 100 µM
- TGI [23]: > 100 µM
- TGI [24]: > 100 µM
- TGI [25]: > 100 µM
- TGI [26]: > 100 µM
- TGI [27]: > 100 µM
- TGI [28]: > 100 µM
- TGI [29]: 95.5 µM
- TGI [30]: > 100 µM
- TGI [31]: > 100 µM
- TGI [32]: > 100 µM
- TGI [33]: > 100 µM
- TGI [34]: > 100 µM
- TGI [35]: > 100 µM
- TGI [36]: > 100 µM
- TGI [37]: > 100 µM
- TGI [38]: > 100 µM
- TGI [39]: > 100 µM
- TGI [40]: > 100 µM
- TGI [41]: 95 µM
- TGI [42]: > 100 µM
- TGI [43]: > 100 µM
- TGI [44]: > 100 µM
- TGI [45]: > 100 µM
- TGI [46]: > 100 µM
- TGI [47]: > 100 µM
- TGI [48]: 83.9 µM
- TGI [49]: > 100 µM
- TGI [50]: > 100 µM
- TGI [51]: > 100 µM
- TGI [52]: > 100 µM
- TGI [53]: > 100 µM
- TGI [54]: > 100 µM
- TGI [55]: > 100 µM

SMILES: Fc1cccc(F)c1C1SCc2nc3ccc(Cl)cc3n21 (stereo unspecified)
- TGI [1]: > 100 µM
- TGI [2]: > 100 µM
- TGI [3]: > 100 µM
- TGI [4]: > 100 µM
- TGI [5]: > 100 µM
- TGI [6]: > 100 µM
- TGI [7]: > 100 µM
- TGI [8]: > 100 µM
- TGI [9]: > 100 µM
- TGI [10]: > 100 µM
- TGI [11]: > 100 µM
- TGI [12]: > 100 µM
- TGI [13]: > 100 µM
- TGI [14]: > 100 µM
- TGI [15]: > 100 µM
- TGI [56]: > 100 µM
- TGI [16]: > 100 µM
- TGI [57]: > 100 µM
- TGI [17]: > 100 µM
- TGI [18]: > 100 µM
- TGI [19]: > 100 µM
- TGI [20]: > 100 µM
- TGI [21]: > 100 µM
- TGI [22]: > 100 µM
- TGI [23]: > 100 µM
- TGI [24]: > 100 µM
- TGI [25]: > 100 µM
- TGI [26]: > 100 µM
- TGI [27]: > 100 µM
- TGI [28]: > 100 µM
- TGI [29]: > 100 µM
- TGI [30]: > 100 µM
- TGI [31]: > 100 µM
- TGI [33]: > 100 µM
- TGI [34]: > 100 µM
- TGI [35]: > 100 µM
- TGI [36]: > 100 µM
- TGI [37]: > 100 µM
- TGI [38]: > 100 µM
- TGI [40]: > 100 µM
- TGI [58]: > 100 µM
- TGI [41]: > 100 µM
- TGI [42]: > 100 µM
- TGI [43]: > 100 µM
- TGI [44]: > 100 µM
- TGI [45]: > 100 µM
- TGI [46]: > 100 µM
- TGI [47]: > 100 µM
- TGI [48]: > 100 µM
- TGI [49]: > 100 µM
- TGI [50]: > 100 µM
- TGI [51]: > 100 µM
- TGI [52]: > 100 µM
- TGI [59]: > 100 µM
- TGI [53]: > 100 µM
- TGI [54]: > 100 µM
- TGI [55]: > 100 µM

SMILES: CCCCCCCCCCCCCC[C@@H](O)[C@H]1CC[C@H]([C@H]2CC[C@H]([C@H](O)CCCCCC[C@@H](O)CC3=C[C@H](C)OC3=O)O2)O1
- GI50 [1]: 0.676 µM
- TGI [1]: 2.95 µM and > 25 µM
- TGI [2]: > 25 µM
- GI50 [3]: 2.72 µM
- TGI [3]: 8.15 µM and > 25 µM
- GI50 [4]: 1.55 µM
- TGI [4]: 4.1 µM and > 25 µM
- GI50 [5]: 1.52 µM
- TGI [5]: 3.86 µM and > 25 µM
- GI50 [6]: 1.75 µM
- TGI [6]: 5.01 µM and > 25 µM
- TGI [7]: > 25 µM
- GI50 [8]: 1.47 µM
- TGI [8]: > 25 µM
- GI50 [9]: 2.42 µM
- TGI [9]: 5.38 µM and > 25 µM
- GI50 [10]: 1.75 µM
- TGI [10]: 7.71 µM and > 25 µM
- GI50 [11]: 1.53 µM
- TGI [11]: 3.21 µM and > 25 µM
- GI50 [12]: 4.61 µM
- TGI [12]: > 25 µM
- GI50 [13]: 2.06 µM
- TGI [13]: > 25 µM
- TGI [14]: > 25 µM
- GI50 [15]: > 25 µM
- TGI [15]: 7.14 µM and > 25 µM
- GI50 [56]: 2.74 µM
- TGI [56]: > 25 µM
- GI50 [16]: 2.25 µM
- TGI [16]: 6.85 µM and > 25 µM
- TGI [57]: > 25 µM
- GI50 [17]: 4.31 µM
- TGI [17]: > 25 µM
- GI50 [18]: 0.0214 µM
- TGI [18]: 4.26 µM and > 25 µM
- GI50 [19]: 2.72 µM
- TGI [19]: > 25 µM
- GI50 [20]: 1.18 µM
- TGI [20]: > 25 µM
- GI50 [21]: > 25 µM
- TGI [21]: 6.48 µM and > 25 µM
- GI50 [22]: 1.88 µM
- TGI [22]: 4.86 µM and > 25 µM
- GI50 [23]: 1.74 µM
- TGI [23]: 3.44 µM and > 25 µM
- GI50 [24]: 1.59 µM
- TGI [24]: > 25 µM
- GI50 [25]: 2.9 µM
- TGI [25]: > 25 µM
- TGI [26]: > 25 µM
- GI50 [27]: 2.44 µM
- TGI [27]: > 25 µM
- GI50 [28]: 1.14 µM
- TGI [28]: 3.47 µM and > 25 µM
- GI50 [29]: 2.2 µM
- TGI [29]: > 25 µM
- GI50 [30]: > 25 µM
- TGI [30]: > 25 µM
- GI50 [31]: > 25 µM
- TGI [31]: 3.15 µM and > 25 µM
- GI50 [32]: 1.71 µM
- TGI [32]: 5.04 µM and > 25 µM
- GI50 [33]: 1.7 µM
- TGI [33]: 4.95 µM and > 25 µM
- GI50 [34]: 2.61 µM
- TGI [34]: 8.75 µM and > 25 µM
- GI50 [35]: 2.13 µM
- TGI [35]: 7.31 µM and > 25 µM
- GI50 [36]: > 25 µM
- TGI [36]: 4.5 µM and > 25 µM
- GI50 [37]: 2.01 µM
- TGI [37]: 8.81 µM and > 25 µM
- GI50 [38]: 1.69 µM
- TGI [38]: 5.04 µM and > 25 µM
- GI50 [39]: 3.27 µM
- TGI [39]: > 25 µM
- TGI [40]: 2.56 µM and > 25 µM
- GI50 [58]: > 25 µM
- TGI [58]: 3.3 µM and > 25 µM
- GI50 [41]: 2.31 µM
- TGI [41]: 8.9 µM and > 25 µM
- GI50 [42]: 1.68 µM
- TGI [42]: 9.27 µM and > 25 µM
- GI50 [43]: > 25 µM
- TGI [43]: 8.37 µM and > 25 µM
- GI50 [44]: 1.02 µM
- TGI [45]: > 25 µM
- GI50 [46]: 0.717 µM
- TGI [46]: 2.52 µM and > 25 µM
- GI50 [47]: 2.06 µM
- TGI [47]: > 25 µM
- GI50 [48]: 2.14 µM
- TGI [48]: > 25 µM
- GI50 [49]: > 25 µM
- TGI [49]: 6.47 µM and > 25 µM
- GI50 [50]: 1.52 µM
- TGI [50]: 3.06 µM and > 25 µM
- GI50 [51]: > 25 µM
- TGI [51]: 3.94 µM and > 25 µM
- GI50 [52]: 5.88 µM
- TGI [52]: 6.05 µM and > 25 µM
- TGI [59]: > 25 µM
- GI50 [53]: 2.16 µM
- TGI [53]: > 25 µM
- GI50 [54]: 1.62 µM
- TGI [54]: 6.01 µM and > 25 µM
- GI50 [55]: 1.21 µM
- TGI [55]: 2.59 µM and > 25 µM
